By IC50 is commonly meant the concentration needed to halve the response being measured.

Among the data in patent US10508109B2 (priority 2015, dated 2019) are IC50 values, retold here.

For assay [1], the target named is SUV39H2 (Homo sapiens (Human), UniProt Q9H5I1). Description: biochemical. Format: biochemical. Conditions: 3H-SAM 100 nM, H3 Histone Peptide 350 nM, room temperature 3 hours. The protocol:
Assay buffer (4 μL) was added into all the wells, including test compound and control wells (except for Sinefungin control wells), using the Multidrop Combi. The plate was centrifuged at 1000 rpm for 1 min. […] SUV39H2 (8 μL, final conc: optimized for each lot of the enzyme based on specific activity) was added by using the Multidrop Combi. The assay plate was centrifuged at 1000 rpm for 1 min. Assay buffer was used as background control, and incubated at room temperature for 3 hours. The reaction was stopped with 20 μL of 2.5 mg/mL Streptavidin SPA beads (final conc. 50 μg/well) in buffer using the Multidrop Combi and centrifuged for 1 min. The plate was loaded into the Trilux-Microbeta counter and a delayed read of 10 hours was made. The radioactive signal was measured at 1 min/well. Sinefungin and the internal standard compound were used as tool compounds to determine assay performance.
• The following calculations were made using the obtained CPM raw data: Software used: XLFit from IDBS.
For each test plate the following results were calculated: • Average, Standard Deviation, and % CV of Background Controls • Average, Standard Deviation, and % CV of Positive Controls • Z′ value of the plate • IC50 values of standard and test compounds (in nM) • R^2 value of fitted concentration response curve • Hill slope coefficient of fitted concentration response curve • Signal to Noise Ratio

The subject of assay [2] is A549. Nature of the assay: Cell-based assay, anti-proliferative activity (Cell Counting Kit-8, 72 hours). Conditions: Homo sapiens, read-out: A549 IC50. An outline of the steps:
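Growth read-out after inhibitor treatment of plated cells; potency expressed as IC50.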
(Tetrazolium dyes change colour on reduction, which living cells bring about.)

[3] abbreviates: A549 cells, 72 hours exposure, Cell Counting Kit-8.

Counter-ions that a name gives are not always drawn. Like-named read-outs stand apart in the source and are kept apart here.

Sequence of SUV39H2 (Q9H5I1 whole entry): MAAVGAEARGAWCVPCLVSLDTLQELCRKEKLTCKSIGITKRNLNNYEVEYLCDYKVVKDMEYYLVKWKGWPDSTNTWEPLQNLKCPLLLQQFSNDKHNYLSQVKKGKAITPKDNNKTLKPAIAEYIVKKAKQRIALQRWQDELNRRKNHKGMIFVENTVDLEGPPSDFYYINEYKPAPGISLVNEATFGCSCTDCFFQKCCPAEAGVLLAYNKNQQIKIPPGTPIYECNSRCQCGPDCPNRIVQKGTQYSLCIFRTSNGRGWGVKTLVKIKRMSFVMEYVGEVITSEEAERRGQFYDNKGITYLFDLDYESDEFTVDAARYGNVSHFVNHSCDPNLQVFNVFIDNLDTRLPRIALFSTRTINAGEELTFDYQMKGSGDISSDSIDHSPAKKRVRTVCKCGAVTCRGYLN

As to `COc1cc(OC)c(-c2cn3cnc(N4CCN(S(=O)(=O)C5CC5)CC4)cc3n2)cc1Cl` [Example 390, 2-(5-chloro-2,4-dimethoxyphenyl)-7-(4-(cyclopropylsulfonyl)piperazin-1-yl)imidazo[1,2-c]pyrimidine], the IC50 in assay [1] amounted to 99.6 nM; in assay [2] (setting [3]) it was 390 nM.

Regarding `COc1cc(OC)c(-c2cn3ccc(N4CCN(C(=O)c5ccccc5O)CC4)cc3n2)cc1Cl` [Example 314, (4-(2-(5-chloro-2,4-dimethoxyphenyl)imidazo[1,2-a]pyridin-7-yl)piperazin-1-yl)(2-hydroxyphenyl)methanone], the IC50 in assay [1] came to 7.29 nM; in assay [2] (setting [3]), 1700 nM.

`COc1cc(OC)c(-c2cn3ccc(N4CCCN(c5ncccn5)CC4)cc3n2)cc1Cl` [Example 368, 2-(5-chloro-2,4-dimethoxyphenyl)-7-(4-(pyrimidin-2-yl)-1,4-diazepan-1-yl)imidazo[1,2-a]pyridine]: the IC50 in assay [1] stood at 15.7 nM; in assay [2] (setting [3]), 990 nM.

As for `COc1ccc(CN[C@H]2CC[C@@H](Nc3ccn4cc(-c5cc(Cl)c(OC)cc5OC)nc4c3)CC2)cc1` [Example 380, cis-N^1-(2-(5-chloro-2,4-dimethoxyphenyl)imidazo[1,2-a]pyridin-7-yl)-N^4-(4-methoxybenzyl)cyclohexane-1,4-diamine bis(2,2,2-trifluoroacetate)], the results for the IC50 in assay [1] and in assay [2] (setting [3]) were 33.3 nM and 600 nM, respectively.

Consider `CNC1CCN(c2ncc(N3CCN(c4ccn5cc(-c6cc(Cl)c(OC)cc6OC)nc5c4)CC3)cn2)CC1` [Example 396, 1-(5-(4-(2-(5-chloro-2,4-dimethoxyphenyl)imidazo[1,2-a]pyridin-7-yl)piperazin-1-yl)pyrimidin-2-yl)-N-methylpiperidin-4-amine dihydrochloride], for which the IC50 stood at 14.6 nM in assay [1] and 780 nM in assay [2] (A549, 72 h).

For `COc1cc(OC)c(-c2cn3ccc(N[C@H]4CC[C@@H](NC(=O)c5ccccc5O)CC4)cc3n2)cc1Cl` [Example 392, N-(cis-4-((2-(5-chloro-2,4-dimethoxyphenyl)imidazo[1,2-a]pyridin-7-yl)amino)cyclohexyl)-2-hydroxybenzamide trifluoroacetate], the IC50 in assay [1] was 52.7 nM; in assay [2] (setting [3]), 680 nM.

Turning to `CNc1ncc(N2CCN(c3ccn4cc(-c5cc(Cl)c(OC)cc5OC)nc4c3)CC2)cn1` [Example 340, 5-(4-(2-(5-chloro-2,4-dimethoxyphenyl)imidazo[1,2-a]pyridin-7-yl)piperazin-1-yl)-N-methylpyrimidin-2-amine trifluoroacetate], the IC50 in assay [1] was 17.1 nM; in assay [2] (setting [3]), 690 nM.

For `COc1cc(OC)c(-c2cn3ccc(NC4CCN(Cc5csc([N+](=O)[O-])c5)CC4)cc3n2)cc1Cl` [Example 324, 2-(5-chloro-2,4-dimethoxyphenyl)-N-(1-((5-nitrothiophen-3-yl)methyl)piperidin-4-yl)imidazo[1,2-a]pyridin-7-amine], the half-inhibitory concentration (IC50) in assay [1] is 33.9 nM; in assay [2] (setting [3]), 590 nM.

Turning to `COc1cc(OC)c(-c2cn3ccc(N4CCN(c5ncc(N)cn5)CC4)cc3n2)cc1Cl` [Example 422, 2-(4-(2-(5-chloro-2,4-dimethoxyphenyl)imidazo[1,2-a]pyridin-7-yl)piperazin-1-yl)pyrimidin-5-amine hydrochloride], the IC50 stood at 11.2 nM in assay [1] and 720 nM in assay [2] (A549, 72 h).

Regarding `COc1cc(OC)c(-c2cn3ccc(N4CCN(c5ccnc(N6CCC(O)CC6)n5)CC4)cc3n2)cc1Cl` [Example 332, 1-(4-(4-(2-(5-chloro-2,4-dimethoxyphenyl)imidazo[1,2-a]pyridin-7-yl)piperazin-1-yl)pyrimidin-2-yl)piperidin-4-ol], the IC50 in assay [1] was determined as 21.6 nM; in assay [2] (A549, 72 h) it was 910 nM.

Regarding `COc1cc(OC)c(-c2cn3ccc(N[C@H]4CC[C@@H](NCc5cccc(F)c5)CC4)cc3n2)cc1Cl` [Example 402, cis-N^1-(2-(5-chloro-2,4-dimethoxyphenyl)imidazo[1,2-a]pyridin-7-yl)-N^4-(3-fluorobenzyl)cyclohexane-1,4-diamine bis(2,2,2-trifluoroacetate)], the values for the IC50 in assay [1] and in assay [2] (setting [3]) were 18.7 nM and 740 nM, respectively.

For the molecule `COc1cc(OC)c(-c2cn3ccc(N[C@H]4CC[C@H](CN5CCN(c6ncccn6)CC5)CC4)cc3n2)cc1Cl` [Example 316, 2-(5-chloro-2,4-dimethoxyphenyl)-N-((trans)-4-((4-(pyrimidin-2-yl)piperazin-1-yl)methyl)cyclohexyl)imidazo[1,2-a]pyridin-7-amine], the IC50 in assay [1] stood at 77 nM; in assay [2] (setting [3]), 700 nM.

On to `COc1cc(OC)c(-c2cn3ccc(N4CCN(C(C)=O)CC4)cc3n2)cc1Cl` [Example 307, 1-(4-(2-(5-chloro-2,4-dimethoxyphenyl)imidazo[1,2-a]pyridin-7-yl)piperazin-1-yl)ethanone], for which the IC50 came to 2 nM in assay [1] and 2200 nM in assay [2] (setting [3]).

Take `COc1cc(OC)c(-c2cn3ccc(N4CCN(c5nccc(N6CCN(C)CC6)n5)CC4)cc3n2)cc1Cl` [Example 370, 2-(5-chloro-2,4-dimethoxyphenyl)-7-(4-(4-(4-methylpiperazin-1-yl)pyrimidin-2-yl)piperazin-1-yl)imidazo[1,2-a]pyridine]: the IC50 in assay [1] was determined as 12 nM; in assay [2] (A549, 72 h), 730 nM.

`CNc1ncnc(N2CCN(c3ccn4cc(-c5cc(Cl)c(OC)cc5OC)nc4c3)CC2)n1` [Example 451, 4-(4-(2-(5-chloro-2,4-dimethoxyphenyl)imidazo[1,2-a]pyridin-7-yl)piperazin-1-yl)-N-methyl-1,3,5-triazin-2-amine]: the IC50 was 17 nM in assay [1] and 460 nM in assay [2] (setting [3]).

Consider `COc1cc(OC)c(-c2cn3cnc(N4CC[C@H](NC(=O)OC(C)(C)C)C4)cc3n2)cc1Cl` [Example 387, (S)-tert-butyl (1-(2-(5-chloro-2,4-dimethoxyphenyl)imidazo[1,2-c]pyrimidin-7-yl)pyrrolidin-3-yl)carbamate], for which the IC50 in assay [1] came to 33.2 nM; in assay [2] (setting [3]), 1600 nM.

`COc1cc(OC)c(-c2cn3ccc(N4CCN(S(C)(=O)=O)C(C)C4)cc3n2)cc1Cl` (stereo not drawn) [Example 312, 2-(5-chloro-2,4-dimethoxyphenyl)-7-(3-methyl-4-(methylsulfonyl)piperazin-1-yl)imidazo[1,2-a]pyridine]: the IC50 in assay [1] was 3.81 nM; in assay [2] (setting [3]), 2500 nM.

As to `CNC1CCN(c2cnc(N3CCN(c4ccn5cc(-c6cc(Cl)c(OC)cc6OC)nc5c4)CC3)nc2)CC1` [Example 458, 1-(2-(4-(2-(5-chloro-2,4-dimethoxyphenyl)imidazo[1,2-a]pyridin-7-yl)piperazin-1-yl)pyrimidin-5-yl)-N-methylpiperidin-4-amine], the IC50 worked out at 17.5 nM in assay [1] and 420 nM in assay [2] (setting [3]).

For the molecule `CNC1CCN(c2cc(N3CCN(c4ccn5cc(-c6cc(Cl)c(OC)cc6OC)nc5c4)CC3)ncn2)C1` (stereo not drawn) [Example 424, 1-(6-(4-(2-(5-chloro-2,4-dimethoxyphenyl)imidazo[1,2-a]pyridin-7-yl)piperazin-1-yl)pyrimidin-4-yl)-N-methylpyrrolidin-3-amine], the IC50 stood at 11.4 nM in assay [1] and 700 nM in assay [2] (setting [3]).

Regarding `COc1cc(OC)c(-c2cn3ccc(N4CC[C@H](NCC5CCN(C(=O)OC(C)(C)C)CC5)C4)cc3n2)cc1Cl` [Example 400, (S)-tert-butyl 4-(((1-(2-(5-chloro-2,4-dimethoxyphenyl)imidazo[1,2-a]pyridine-7-yl)pyrrolidin-3-yl)amino)methyl)piperidine-1-carboxylate], the IC50 was determined as 7.15 nM in assay [1] and 930 nM in assay [2] (setting [3]).

In the case of `COc1cc(OC)c(-c2cn3ccc(N4CCN(c5nc(N)nc(NC(C)(C)C)n5)CC4)cc3n2)cc1Cl` [Example 446, N^2-(tert-butyl)-6-(4-(2-(5-chloro-2,4-dimethoxyphenyl)imidazo[1,2-a]pyridin-7-yl)piperazin-1-yl)-1,3,5-triazine-2,4-diamine], the IC50 stood at 97.4 nM in assay [1] and 430 nM in assay [2] (setting [3]).

As to `COc1cc(OC)c(-c2cn3ccc(N4CCN(c5ccncc5F)CC4)cc3n2)cc1Cl` [Example 322, 2-(5-chloro-2,4-dimethoxyphenyl)-7-(4-(3-fluoropyridin-4-yl)piperazin-1-yl)imidazo[1,2-a]pyridine], the IC50 in assay [1] turned out to be 57.5 nM; in assay [2] (setting [3]) it was 560 nM.

Turning to `COc1cc(OCCCN(C)C)c(-c2cn3ccc(N4CC[C@H](N)C4)cc3n2)cc1Cl` [Example 432, (S)-1-(2-(5-chloro-2-(3-(dimethylamino)propoxy)-4-methoxyphenyl)imidazo[1,2-a]pyridin-7-yl)pyrrolidin-3-amine], the IC50 in assay [1] amounted to 31.8 nM; in assay [2] (setting [3]) it was 710 nM.

On to `COc1cc(OC)c(-c2cn3ccc(N4CCN(c5ccnc(NCCCO)n5)CC4)cc3n2)cc1Cl` [Example 395, 3-((4-(4-(2-(5-chloro-2,4-dimethoxyphenyl)imidazo[1,2-a]pyridine-7-yl)piperazin-1-yl)pyrimidin-2-yl)amino)propan-1-ol], for which the IC50 in assay [1] came to 14 nM; in assay [2] (setting [3]), 770 nM.
